{
  "source": "paper PMC8224802",
  "about": "(Pharmaceutics, 2021)",
  "key": {"[1]": {"conditions": "healthy subjects, cited from earlier work"}, "[2]": {"conditions": "cited from earlier work"}, "[3]": {"test": "Plasma protein binding by rapid equilibrium dialysis (human plasma)", "type": "in vitro ADME", "conditions": "human, plasma (20-fold diluted); Table S3, in-house; species not printed (clinical prediction); read-out: fu,QCT", "method": "(§1) A 200 μL spiked samples and 400 μL PBS were placed into the “sample” and “buffer” chambers of the RED device, respectively. After 4-h incubation to equilibrate between the buffer and plasma compartments, the RED plate was sampled from both compartments. The samples were matrix-matched for analysis by addition of either diluted plasma or buffer; (a) blank diluted plasma added to the buffer samples and (b) blank buffer added to the diluted plasma sample, at a ratio of 50:50 v/v. The unbound fractions in microsomes and diluted plasma were determined by dividing the analyte/IS peak area ratios of the (a) sample by those of the (b) sample. The unbound fraction in diluted plasma (fu,d) was converted to the unbound fraction in undiluted plasma (fu) using a Kalvass equation as below (DF: dilution factor). (1) fu=1/DF/[(1/fu,d)−1]+1/DF"}, "[4]": {"test": "Microsomal protein binding by rapid equilibrium dialysis (HLM)", "conditions": "human, microsomes", "method": "as §1"}, "[5]": {"system": "microsomal metabolism of RPG (repaglinide)", "test": "In vitro inhibition of RPG metabolism by QCT in RLM", "type": "in vitro ADME, rat", "conditions": "rat, rat liver microsomes", "method": "(§2) The intrinsic metabolic clearance (CLint) was calculated as Vmax/Km. […] The parameter α is indicative of the inhibition type. The mixed model is a general equation that includes competitive, uncompetitive, and noncompetitive inhibition as special cases. When α = 1, the mixed model is identical to a noncompetitive inhibition. When α is very large (α→∞) or very small (α→0), the mixed model becomes identical to competitive inhibition or uncompetitive inhibition, respectively."}, "[6]": {"system": "microsomal metabolism of RPG in RLM", "test": "In vitro inhibition of RPG metabolism by QCT in RLM", "type": "in vitro ADME, rat", "method": "as §2"}, "[7]": {"system": "microsomal metabolism of RPG (repaglinide)", "test": "In vitro inhibition of RPG metabolism by QCT in HLM", "type": "in vitro ADME, human", "conditions": "human, human liver microsomes", "method": "as §2"}, "[8]": {"system": "microsomal metabolism of RPG in HLM", "test": "In vitro inhibition of RPG metabolism by QCT in HLM", "type": "in vitro ADME, human", "method": "as §2"}, "[9]": {"test": "In vivo oral pharmacokinetic study of RPG without or with QCT in rats", "parameters": "species or system Sprague-Dawley rats", "conditions": "rats, oral QCT 100 mg/kg", "method": "Rats were anesthetized via intramuscular injection of 10 mg/kg zoletil. The femoral vein and artery of the rats were cannulated using a polyethylene tube (BD Medical, Franklin Lakes, NJ, USA). […] The vehicle solutions for the intravenous and oral doses were composed of PEG 400 and aqueous 0.3% CMC solution (50:50 v/v).\nFor comparison, the extent of absolute oral bioavailability (F; expressed as percent of dose administered) was calculated by dividing the dose-normalized AUC after oral administration by the dose-normalized AUC after intravenous injection. The peak plasma concentration (Cmax) and time to reach Cmax (Tmax) were obtained directly from the measured experimental data."}, "CYP3A4": {"system": "CYP3A4", "parameters": "method as in PMID 28232125", "conditions": "read-out: Ki of QCT for CYP3A4 activity; cited from earlier work"}, "[10]": {"system": "in vitro metabolism of RPG in HLM", "conditions": "cited from earlier work"}, "[11]": {"parameters": "method as in earlier work", "conditions": "Table S3, ref [1] of the supplement (Ganio et al., 2010); cited from earlier work"}, "[12]": {"conditions": "probe RPG (repaglinide), 1, 3, 10, 30 and 100 μM"}},
  "note": "Like-named read-outs stand apart in the source and are kept apart here.",
  "data": [
    {"smiles": "CN(CCOc1ccc(CC2SC(=O)NC2=O)cc1)c1ccccn1", "note": "(stereo not shown) [rosiglitazone]", "values": [
      {"measurement": "Effect of oral QCT on the pharmacokinetics of rosiglitazone", "setting": "[1]; QCT 500 mg/day for 21 days", "result": "did not significantly change"}
    ]},
    {"smiles": "CCC(C)n1ncn(-c2ccc(N3CCN(c4ccc(OCC5COC(Cn6cncn6)(c6ccc(Cl)cc6Cl)O5)cc4)CC3)cc2)c1=O", "note": "(stereo not shown) [itraconazole]", "values": [
      {"measurement": "Increase of systemic exposure to orally administered RPG by CYP3A4 inhibitors", "setting": "[2]", "result": 1.4, "unit": "fold"}
    ]},
    {"smiles": "CC[C@H]1OC(=O)[C@H](C)C(=O)[C@H](C)[C@@H](O[C@@H]2O[C@H](C)C[C@H](N(C)C)[C@H]2O)[C@](C)(OC)C[C@@H](C)C(=O)[C@H](C)[C@H]2N(CCCCn3cnc(-c4cccnc4)c3)C(=O)O[C@]12C", "note": "[telithromycin]", "values": [
      {"measurement": "Increase of systemic exposure to orally administered RPG by CYP3A4 inhibitors", "setting": "[2]", "result": 1.8, "unit": "fold"}
    ]},
    {"smiles": "Cn1c(=O)c2c(ncn2C)n(C)c1=O", "note": "[caffeine]", "values": [
      {"measurement": "Effect of oral QCT on systemic exposure (AUC and/or Cmax)", "setting": "[1]; QCT 500 mg/day for 14 days", "result": "significantly increased"}
    ]},
    {"smiles": "COc1cc(Cc2cnc(N)nc2N)cc(OC)c1OC", "note": "[trimethoprim]", "values": [
      {"measurement": "Increase of systemic exposure to orally administered RPG by CYP2C8 inhibitors", "setting": "[2]", "result": "1.6–2 fold"}
    ]},
    {"smiles": "COC(=O)[C@H](c1ccccc1Cl)N1CCc2sccc2C1", "note": "[clopidogrel]", "values": [
      {"measurement": "Increase of systemic exposure to orally administered RPG by CYP2C8 inhibitors", "setting": "[2]", "result": "3.1–5.1 fold"}
    ]},
    {"smiles": "O=c1c(O)c(-c2ccc(O)c(O)c2)oc2cc(O)cc(O)c12", "note": "[QCT, Quercetin]", "values": [
      {"measurement": "fraction unbound at 4 h, 5 μM", "setting": "[3]", "result": 0.0462},
      {"measurement": "fraction unbound at 4 h, 5 μM", "setting": "[4]", "result": 0.381},
      {"measurement": "IC50 at 60 min", "setting": "[5]; probe RPG (repaglinide), 3 μM", "result": "[…]"},
      {"measurement": "Ki at 60 min", "setting": "[5]; [12]", "result": 72, "unit": "µM"},
      {"measurement": "Type of inhibition of RPG metabolism by QCT", "setting": "[6]; RLM, Dixon plot and model fit", "result": "mixed inhibition"},
      {"measurement": "Inhibition potency of QCT on hepatic metabolism of RPG in vitro", "setting": "[6]; rats (RLM)", "result": "weak"},
      {"measurement": "IC50", "setting": "[7]; probe RPG (repaglinide), 3 μM, IC50 of QCT on the microsomal metabolism of RPG, HLM 0.5 mg/mL, 3 μM RPG", "result": 3, "unit": "µM"},
      {"measurement": "Ki", "setting": "[7]; [12]", "result": 24.2, "unit": "µM"},
      {"measurement": "Ki", "setting": "[7]; probe RPG (repaglinide), Table S3, S = 5 μM, read-out: Calculated Ki, (fu,mic,QCT × IC50) / (S / Km + 1)", "result": 0.534, "unit": "µM"},
      {"measurement": "Type of inhibition of RPG metabolism by QCT", "setting": "[8]; HLM, Dixon plot and model fit", "result": "mixed inhibition"},
      {"measurement": "IC50", "setting": "[8]; Table S3, source Figure 4, read-out: IC50 used for estimation of R", "result": 1.66, "unit": "µM"},
      {"measurement": "Inhibition potency of QCT on hepatic metabolism of RPG in vitro", "setting": "[8]; humans (HLM)", "result": "moderate"},
      {"measurement": "IC50", "setting": "[8]; read-out: IC50 of QCT on the microsomal metabolism of RPG, HLM 0.5 mg/mL, 3 μM RPG", "result": "3.03 ± 1.84", "unit": "µM"},
      {"measurement": "Classification of QCT as inhibitor of in vivo metabolism and systemic exposure of RPG", "setting": "[9]", "result": "weak inhibitor"},
      {"measurement": "Ki", "setting": "CYP3A4", "result": "[…]"},
      {"measurement": "Inhibition of in vitro metabolism of RPG", "setting": "[10]; QCT 25 μM, RPG 0.2 μM", "result": 58, "unit": "%"},
      {"measurement": "Effect of QCT on metabolism of RPG in HLM", "setting": "[10]; RPG 0.2 and 2 μM, QCT 25 μM", "result": "significantly inhibited"},
      {"measurement": "Ki", "setting": "[10]; read-out: Ki for the inhibitory effect of QCT on in vitro metabolism of RPG", "result": 0.61, "unit": "µM"},
      {"measurement": "Imax,u (maximum unbound plasma concentration of QCT)", "setting": "[11]", "result": "[…]"}
    ]}
  ]
}
